Data reported in US9480712B2, “Biomedical composition” (INDUSTRIAL TECHNOLOGY RESEARCH INSTITUTE, priority 2013, dated 2016).

Key:
[1] = tested on: HT-29 cells, human colon adenocarcinoma cell line; assay: Tumor growth inhibition in nude mice implanted with HT-29 cells; assay type: in vivo; details: 2 mg Pt/kg, tail vein, twice a week, 6 doses; day 14 to day 42
Description: HT-29 cells, human colon adenocarcinoma cell line, were implanted into the backs of nude mice. After the size of the tumor reached 100-200 mm^3, the mice were administered hyaluronic acid derivative/DACHPt complex nano-carriers formed by Formulation PtHC604 (2 mg Pt/kg), oxaliplatin (2 mg Pt/kg) or 10% sucrose through tail vein injections twice a week, for a total of 6 doses. The size changes of the tumors were measured, regularly, and tumor growth inhibition (TGI) rate was calculated. Calculation formula is as follows: Tumor growth inhibition (TGI) (%)=[1−(Δ Tumor volume for drug treatment group/Δ Tumor volume for vehicle treatment group)]×100

[2] = Concentration of Pt in rat plasma by ICP-AES, pharmacokinetic parameters; assay type: in vivo, rats; details: 0.5 mg/rat
Description: The rats were grouped, and 0.5 mg/rat oxaliplatin, Formulations PtHC101, PtHC305 and PtHC603, were respectively administered. After that, at different time points the blood samples were sampled from the rats, the concentrations of Pt in the plasma were analyzed by inductively coupled plasma with atomic emission spectroscopy (ICP-AES), and the original drug concentration in blood (CO), half-life (T ½), area under curve (AUC), volume of distribution (Vz), and clearance (Cl) of each formulation were calculated.

[3] = tested on: U87MC cells; assay: Cytotoxicity analysis (MTT); assay type: cell-based; details: Homo sapiens, U-87 MG, U87 cells, 48 hours
Description: U87 cells were inoculated in a 96-well culture plate with a density of 1×10^4 cells/well, and cultured in a 37° C., 5% CO2 incubator for 1 day. […] Next, the old medium was removed from the culture plate and the culture plate was washed with medium three times. After the medium was removed from the culture plate, 100 μL of 0.5 mg/mL MTT reagent was added to the plate, and the culture plate was incubated at 37° C. for 4 hours. Then, the old medium was removed and 100 μL of 0.1 N HCl/isopropanol was added to the culture plate to dissolve the precipitate. Finally, the culture plate was placed in a ELISA reader to determine the absorbance at wavelength 570 nm, and the absorbance was converted into cell viability based on the following formula: Cell viability (%)=Intensity of sample/Intensity of control×100%.

SMILES	tumor growth inhibition (TGI) rate [1] [%]	AUClast [2] [ng·h/mL]	C0 [2] [ng/mL]	Cl_pred [2] [mL/min/kg]	HL_Lambda_z [2] [h]	Vz_pred [2] [L/kg]	IC50 [3] [nM]
O=C1[O][Pt]2([NH][C@@H]3CCCC[C@H]3[NH]2)[O]C1=O [Oxaliplatin, oxaliplatin]	42±8	4202.6 ± 1280.2	6317.9 ± 4430.9	3.695 ± 1.13	8.2 ± 1.1	2.6208 ± 0.8685	–
COc1cccc2c1C(=O)c1c(O)c3c(c(O)c1C2=O)C[C@@](O)(C(=O)CO)C[C@@H]3O[C@H]1C[C@H](N)[C@H](O)[C@H](C)O1 [Doxorubicin, doxorubicin]	–	–	–	–	–	–	100
